{
  "source": "patent US7651978B2",
  "about": "“Selective herbicides based on a substituted phenylsulphonylaminocarbonyl-triazolinone” (Arysta LifeScience North America, LLC, priority 1998, dated 2010)",
  "key": {"Alopecurus": {"tested_on": "Alopecurus", "test": "Pre-emergence test/greenhouse", "format": "in vivo", "settings": "504 h, 30 g of ai./ha, after three weeks, read-out: degree of damage, Alopecurus", "protocol": "(§1) Pre-Emergence Test/Greenhouse Solvent: 5 parts by weight of acetone Emulsifier: 1 part by weight of alkylaryl polyglycol ether To produce a suitable preparation of active compound, 1 part by weight of active compound is mixed with the stated amount of solvent, the stated amount of emulsifier is added and the concentrate is diluted with water to the desired concentration. Seeds of the test plants are sown in normal soil. After about 24 hours, the soil is sprayed with the preparation of active compound such that the particular amount of active compound desired is applied per unit area. The concentration of the spray liquor is chosen so that the particular amount of active compound desired is applied in 500 ml of water per hectare. After three weeks, the degree of damage to the plants is assessed in % damage in comparison to the development of the untreated control. The figures denote: • 0%=no effect (like untreated control) • 100%=total destruction"}, "Avena": {"tested_on": "Avena", "test": "Pre-emergence test/greenhouse", "format": "in vivo", "settings": "504 h, 30 g of ai./ha, after three weeks, read-out: degree of damage, Avena", "protocol": "as §1"}, "Digitaria": {"tested_on": "Digitaria", "test": "Pre-emergence test/greenhouse", "format": "in vivo", "settings": "30 g of ai./ha, after three weeks", "protocol": "as §1"}, "Matricaria": {"tested_on": "Matricaria", "test": "Pre-emergence test/greenhouse", "format": "in vivo", "settings": "30 g of ai./ha, after three weeks", "protocol": "as §1"}, "Polygonum": {"tested_on": "Polygonum", "test": "Pre-emergence test/greenhouse", "format": "in vivo", "settings": "30 g of ai./ha, after three weeks", "protocol": "as §1"}, "Wheat [1]": {"tested_on": "Wheat", "test": "Pre-emergence test/greenhouse", "format": "in vivo", "settings": "pre-emergence, 30 g of ai./ha, after three weeks; 0%=no effect, 100%=total destruction", "protocol": "as §1"}, "Veronica": {"tested_on": "Veronica", "test": "Post-emergence test/greenhouse", "format": "in vivo", "settings": "60 g ai./ha, after three weeks", "protocol": "(§2) Post-Emergence Test/Greenhouse [table] To produce a suitable preparation of active compound, 1 part by weight of active compound is mixed with the stated amount of solvent, the stated amount of emulsifier is added and the concentrate is diluted with water to the desired concentration. Test plants which have a height of 5-15 cm are sprayed with the preparation of active compound such that the particular amounts of active compound desired are applied per unit area. The concentration of the spray liquor is chosen so that the particular amounts of active compound desired are applied in 500 ml of water/ha. After three weeks, the degree of damage to the plants is assessed in % damage in comparison to the development of the untreated control. The figures denote: • 0%=no effect (like untreated control) • 100%=total destruction"}, "Wheat [2]": {"tested_on": "Wheat", "test": "Post-emergence test/greenhouse", "format": "in vivo", "settings": "post-emergence, 60 g ai./ha, after three weeks; 0%=no effect, 100%=total destruction", "protocol": "as §2"}, "Avena fatua": {"tested_on": "Avena fatua", "test": "Post-emergence tests/outdoors (Example C, Canada)", "format": "in vivo", "settings": "outdoors, 15 g of a.i./ha + SAS (Canplus 411), 70 WP, 6 tests", "protocol": "(§3) Post-Emergence Tests/Outdoors In addition to the comparative compounds (B) and (D), the sodium salt of the compound of the formula (I) was tested under outdoor conditions in the main cultivation areas of summer wheat in Canada against economically important weeds. The small-plot experiments were carried out on cultivated land under agricultural use. Areas with particularly extensive weed growth were chosen preferably. The active compounds were applied across the area by the spray method, with an average droplet size. To produce a useful preparation of active compound, the active compounds were formulated as 70 WP (70% w/w water-dispersible powder) and applied with customary amounts of water. Wetting of the plants was improved by addition of a surface-active substance (SAS) in the concentrations recommended by the respective manufacturer. To assess the crop compatibility, from 1 to 8 weeks after the treatment, plant growth inhibitions or […] of the leaf area were assessed in % damage in comparison to the development of the untreated control. At different intervals after the treatment, the herbicidal activity was assessed as % reduction in comparison to the untreated control, based on the weed development. The figures denote: • 0%=no damage of the crops or no herbicidal effect, • 100%=total destruction of the crops or the weeds."}, "Fallopia convolvulus": {"tested_on": "Fallopia convolvulus", "test": "Post-emergence tests/outdoors (Example C, Canada)", "format": "in vivo", "settings": "outdoors, 15 g of a.i./ha + SAS (Canplus 411), 70 WP, 5 tests", "protocol": "as §3"}, "Setaria viridis": {"tested_on": "Setaria viridis", "test": "Post-emergence tests/outdoors (Example C, Canada)", "format": "in vivo", "settings": "outdoors, 15 g of a.i./ha + SAS (Canplus 411), 70 WP, 5 tests", "protocol": "as §3"}, "Sinapis arvensis": {"tested_on": "Sinapis arvensis", "test": "Post-emergence tests/outdoors (Example C, Canada)", "format": "in vivo", "settings": "outdoors, 15 g of a.i./ha + SAS (Canplus 411), 70 WP, 5 tests", "protocol": "as §3"}, "Thlaspi arvense": {"tested_on": "Thlaspi arvense", "test": "Post-emergence tests/outdoors (Example C, Canada)", "format": "in vivo", "settings": "outdoors, 15 g of a.i./ha + SAS (Canplus 411), 70 WP, 3 tests", "protocol": "as §3"}, "wheat [3]": {"tested_on": "wheat", "test": "Post-emergence tests/outdoors (Example C, Canada), crop damage", "format": "in vivo, summer wheat", "settings": "outdoors, 15 g of a.i./ha + SAS (Canplus 411), 70 WP, 9 tests, 1 to 8 weeks after treatment", "protocol": "as §3"}, "[4]": {"tested_on": "weeds, such as Alopecurus, Avena, Bromus, Digitaria, Echinochloa, Matricaria, Polygonum and Setaria", "test": "Pre-emergence test/greenhouse, summary over weeds", "format": "in vivo", "settings": "cf. Table A1", "protocol": "Pre-Emergence Test/Greenhouse Solvent: 5 parts by weight of acetone Emulsifier: 1 part by weight of alkylaryl polyglycol ether To produce a suitable preparation of active compound, 1 part by weight of active compound is mixed with the stated amount of solvent, the stated amount of emulsifier is added and the concentrate is diluted with water to the desired concentration. Seeds of the test plants are sown in normal soil. After about 24 hours, the soil is sprayed with the preparation of active compound such that the particular amount of active compound desired is applied per unit area. The concentration of the spray liquor is chosen so that the particular amount of active compound desired is applied in 500 ml of water per hectare. After three weeks, the degree of damage to the plants is assessed in % damage in comparison to the development of the untreated control. […] Table A1). The considerable superiority of (I)-Na-salt over the comparative compound (G) is shown in Table A2 [“ai.”=“active ingredient”]."}, "[5]": {"tested_on": "weeds, such as Agropyron, Alopecurus, Avena, Bromus, Lolium, Setaria and Veronica", "test": "Post-emergence test/greenhouse, summary over weeds", "format": "in vivo", "settings": "cf. Table B1", "protocol": "as §2, with “[…] A considerable superiority of (I)-Na-salt (at 125 g/ha) over the comparative compounds (G) and (H) (in each case at 250 g/ha!) is shown in Table B2.” for “The figures denote: • 0%=no effect (like untreated control) • 100%=total destruction”"}},
  "data": [
    {"smiles": "COc1nn(C(=O)NS(=O)(=O)c2ccccc2C(F)(F)F)c(=O)n1C", "note": "[(D), 2-(2-Trifluoromethyl-phenylsulphonylaminocarbonyl)-4-methyl-5-methoxy-2,4-dihydro-3H-1,2,4-triazol-3-one]", "values": [
      {"measurement": "pest or weed control at 30 g/ha", "setting": "Alopecurus", "result": 70, "unit": "%"},
      {"measurement": "pest or weed control at 30 g/ha", "setting": "Avena", "result": 50, "unit": "%"},
      {"measurement": "degree of damage, Digitaria", "setting": "Digitaria", "result": 80, "unit": "%"},
      {"measurement": "degree of damage, Matricaria", "setting": "Matricaria", "result": 30, "unit": "%"},
      {"measurement": "degree of damage, Polygonum", "setting": "Polygonum", "result": 70, "unit": "%"},
      {"measurement": "degree of damage, Wheat", "setting": "Wheat [1]", "result": 0, "unit": "%"},
      {"measurement": "degree of damage, Veronica", "setting": "Veronica", "result": 0, "unit": "%"},
      {"measurement": "degree of damage, Wheat", "setting": "Wheat [2]", "result": 0, "unit": "%"},
      {"measurement": "herbicidal effect (%), Avena fatua", "setting": "Avena fatua", "result": 65, "unit": "%"},
      {"measurement": "herbicidal effect (%), Fallopia convolvulus", "setting": "Fallopia convolvulus", "result": 70, "unit": "%"},
      {"measurement": "herbicidal effect (%), Setaria viridis", "setting": "Setaria viridis", "result": 81, "unit": "%"},
      {"measurement": "herbicidal effect (%), Sinapis arvensis", "setting": "Sinapis arvensis", "result": 95, "unit": "%"},
      {"measurement": "herbicidal effect (%), Thlaspi arvense", "setting": "Thlaspi arvense", "result": 95, "unit": "%"},
      {"measurement": "Crop damage (wheat)", "setting": "wheat [3]", "result": 12, "unit": "%"},
      {"measurement": "herbicidal activity (in words, compared with (I)-Na-salt)", "setting": "[4]", "result": "considerably weaker herbicidal activity"},
      {"measurement": "herbicidal activity (in words, compared with (I)-Na-salt)", "setting": "[5]", "result": "considerably weaker herbicidal activity"}
    ]}
  ]
}
